Source: BindingDB's records for doi:10.1016/j.bmcl.2009.11.061 (Glaxosmithkline, 2010)

Test: Inhibition of GSK3beta phosphorylation in human BT474 cells

| SMILES | IC50 |
| --- | --- |
| Cc1occc1-c1nc(N)c(OC[C@@H](N)Cc2c(C#N)[nH]c3ccccc23)cc1-c1cnc2[nH]nc(C)c2n1 [3-((2S)-2-amino-3-(2-amino-5-(3-methyl-1H-pyrazolo[4,3-b]pyrazin-5-yl)-6-(2-methylfuran-3-yl)pyridin-3-yloxy)propyl)-1H-indole-2-carbonitrile] | > 30000 nM |
| Cc1occc1-c1nc(N)c(OC[C@@H](N)Cc2c(C(N)=O)[nH]c3ccccc23)cc1-c1cnc2[nH]nc(C)c2n1 [3-((2S)-2-amino-3-(2-amino-5-(3-methyl-1H-pyrazolo[4,3-b]pyrazin-5-yl)-6-(2-methylfuran-3-yl)pyridin-3-yloxy)propyl)-1H-indole-2-carboxamide] | > 30000 nM |
| Cc1occc1-c1nc(N)c(OC[C@@H](N)Cc2c[nH]c3ccccc23)cc1-c1ccc2[nH]nc(C)c2c1 [3-((S)-2-amino-3-(1H-indol-3-yl)propoxy)-5-(3-methyl-1H-indazol-5-yl)-6-(2-methylfuran-3-yl)pyridin-2-amine] | 220 nM |
| Cc1occc1-c1nc(N)c(OC[C@@H](N)Cc2c[nH]c3ccccc23)cc1-c1cc2c(C)n[nH]c2cn1 [3-((S)-2-amino-3-(1H-indol-3-yl)propoxy)-5-(3-methyl-1H-pyrazolo[3,4-c]pyridin-5-yl)-6-(2-methylfuran-3-yl)pyridin-2-amine] | 680 nM |
| Cc1occc1-c1nc(N)c(OC[C@@H](N)Cc2c[nH]c3ccccc23)cc1-c1cnc2[nH]nc(C)c2n1 [3-((S)-2-amino-3-(1H-indol-3-yl)propoxy)-5-(3-methyl-1H-pyrazolo[4,3-b]pyrazin-5-yl)-6-(2-methylfuran-3-yl)pyridin-2-amine] | 560 nM |
| Cc1occc1-c1nc(N)c(OC[C@@H](N)Cc2c(Cl)[nH]c3ccccc23)cc1-c1cnc2[nH]nc(C)c2n1 [3-((S)-2-amino-3-(2-chloro-1H-indol-3-yl)propoxy)-5-(3-methyl-1H-pyrazolo[4,3-b]pyrazin-5-yl)-6-(2-methylfuran-3-yl)pyridin-2-amine] | 300 nM |
| Cc1occc1-c1nc(N)c(OC[C@@H](N)Cc2ccccc2)cc1-c1cnc2[nH]nc(C)c2n1 [3-((S)-2-amino-3-phenylpropoxy)-5-(3-methyl-1H-pyrazolo[4,3-b]pyrazin-5-yl)-6-(2-methylfuran-3-yl)pyridin-2-amine] | 280 nM |
| Cc1occc1-c1ncc(OC[C@@H](N)Cc2c[nH]c3ccccc23)cc1-c1cnc2[nH]nc(C)c2n1 [(2S)-1-(1H-indol-3-yl)-3-(5-(3-methyl-1H-pyrazolo[4,3-b]pyrazin-5-yl)-6-(2-methylfuran-3-yl)pyridin-3-yloxy)propan-2-amine] | 210 nM |
| Cc1nc(-c2ccoc2)c(-c2cnc3[nH]nc(C)c3n2)cc1OC[C@@H](N)Cc1c[nH]c2ccccc12 [(S)-1-(6-(furan-3-yl)-2-methyl-5-(3-methyl-1H-pyrazolo[4,3-b]pyrazin-5-yl)pyridin-3-yloxy)-3-(1H-indol-3-yl)propan-2-amine] | 280 nM |
| Cc1n[nH]c2ncc(-c3cc(OC[C@@H](N)Cc4c[nH]c5ccccc45)c(C#N)nc3-c3ccoc3)nc12 [(S)-3-(2-amino-3-(1H-indol-3-yl)propoxy)-6-(furan-3-yl)-5-(3-methyl-1H-pyrazolo[4,3-b]pyrazin-5-yl)picolinonitrile] | > 10000 nM |
| CCNc1nc(-c2ccoc2)c(-c2cnc3[nH]nc(C)c3n2)cc1OC[C@@H](N)Cc1ccccc1 [(S)-3-(2-amino-3-phenylpropoxy)-N-ethyl-6-(furan-3-yl)-5-(3-methyl-1H-pyrazolo[4,3-b]pyrazin-5-yl)pyridin-2-amine] | > 10000 nM |
